From ChEMBL document CHEMBL1121431, “Preparation and biological evaluation of 2-azaergolines” (1980) come the findings set out here.

What all share (format): functional
For assay [1], the system named is Mus musculus. The experiment in a line: Mean jumps/mouse was measured at 10 mg/kg dose.
For assay [2], the system named is Mus musculus. The experiment in a line: Percentage inhibition of jumping was measured at 10 mg/kg dose.
Assay [3] concerns Mus musculus. The experiment in a line: Percentage inhibition of jumping was measured at 3 mg/kg dose.
For assay [4], the system named is Mus musculus. The experiment in a line: Total jumps of mice was measured at 3 mg/kg dose.
Assay [5] has as its system Mus musculus. The experiment in a line: Total jumps of mice was measured at 10 mg/kg dose.
In assay [6] the test system is Mus musculus. The experiment in a line: Mean jumps/mouse was measured at 3 mg/kg dose.

Usually inhibition in vivo stands for the change of the read-out against control, counted positive when it falls. A low value points to little suppression. Regarding `CSCC1CC2c3cccc4[nH]nc(c34)CC2N(C)C1` (stereo unspecified), the Activity is listed as 508 in assay [1], 5113 in assay [4], 6096 in assay [5] and 426 in assay [6]. In assay [2], this compound had an inhibition in vivo at 10 mg/kg of 49.6%. In assay [3], the inhibition in vivo at 3 mg/kg is 47.9%.
